# Experimental data taken from ChEMBL document CHEMBL4800727 (2021).
# Tests used:
# [1] = target: Ribosomal protein S6 kinase alpha-5 (Homo sapiens) (UniProt O75582); experiment: ribosomal protein S6 kinase, 90kDa, polypeptide 5 Millipore kinase panel; settings: Compound concentration 10.0 uM
# [2] = target: Serine/threonine-protein kinase PLK3 (Homo sapiens) (UniProt Q9H4B4); experiment: polo-like kinase 3 Millipore kinase panel; settings: Compound concentration 10.0 uM
# [3] = target: High affinity cAMP-specific and IBMX-insensitive 3',5'-cyclic phosphodiesterase 8A (Homo sapiens, UniProt O60658); experiment: hPDE8A1 PDE scan
# [4] = target: Serine/threonine-protein kinase Nek3 (Homo sapiens) (UniProt P51956); experiment: NIMA -related kinase 3 Millipore kinase panel; settings: Compound concentration 10.0 uM
# [5] = target: Tyrosine-protein kinase receptor TYRO3 (Homo sapiens) (UniProt Q06418); experiment: TYRO3 protein tyrosine kinase Millipore kinase panel; settings: Compound concentration 10.0 uM
# [6] = target: Serine/threonine-protein kinase NLK (Homo sapiens) (UniProt Q9UBE8); experiment: nemo-like kinase Millipore kinase panel; settings: Compound concentration 10.0 uM
# Serine/threonine-protein kinase NLK (Homo sapiens), sequence (Q9UBE8 whole entry): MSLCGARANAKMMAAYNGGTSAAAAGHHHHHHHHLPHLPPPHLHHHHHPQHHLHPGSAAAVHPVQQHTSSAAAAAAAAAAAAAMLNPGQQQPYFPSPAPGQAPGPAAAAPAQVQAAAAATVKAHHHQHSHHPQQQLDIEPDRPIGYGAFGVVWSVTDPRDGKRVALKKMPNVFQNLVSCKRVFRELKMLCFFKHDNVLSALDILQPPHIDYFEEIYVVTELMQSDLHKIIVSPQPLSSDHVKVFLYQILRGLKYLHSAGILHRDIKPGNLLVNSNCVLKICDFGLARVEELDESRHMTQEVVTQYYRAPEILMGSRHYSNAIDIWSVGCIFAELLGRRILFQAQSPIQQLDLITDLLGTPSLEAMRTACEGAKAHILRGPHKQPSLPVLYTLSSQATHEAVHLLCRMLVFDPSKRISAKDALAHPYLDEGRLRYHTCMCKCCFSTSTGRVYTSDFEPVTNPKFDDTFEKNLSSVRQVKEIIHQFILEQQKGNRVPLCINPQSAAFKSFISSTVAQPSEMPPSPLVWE
# [7] = target: Tyrosine-protein kinase Fes/Fps (Homo sapiens) (UniProt P07332); experiment: feline sarcoma oncogene Millipore kinase panel; settings: Compound concentration 10.0 uM
# [8] = target: 5-hydroxytryptamine receptor 2A (Homo sapiens) (UniProt P28223); experiment: h5HT2A Cerep panel; settings: Compound concentration 10.0 uM
# 5-hydroxytryptamine receptor 2A (Homo sapiens), sequence (P28223 whole entry): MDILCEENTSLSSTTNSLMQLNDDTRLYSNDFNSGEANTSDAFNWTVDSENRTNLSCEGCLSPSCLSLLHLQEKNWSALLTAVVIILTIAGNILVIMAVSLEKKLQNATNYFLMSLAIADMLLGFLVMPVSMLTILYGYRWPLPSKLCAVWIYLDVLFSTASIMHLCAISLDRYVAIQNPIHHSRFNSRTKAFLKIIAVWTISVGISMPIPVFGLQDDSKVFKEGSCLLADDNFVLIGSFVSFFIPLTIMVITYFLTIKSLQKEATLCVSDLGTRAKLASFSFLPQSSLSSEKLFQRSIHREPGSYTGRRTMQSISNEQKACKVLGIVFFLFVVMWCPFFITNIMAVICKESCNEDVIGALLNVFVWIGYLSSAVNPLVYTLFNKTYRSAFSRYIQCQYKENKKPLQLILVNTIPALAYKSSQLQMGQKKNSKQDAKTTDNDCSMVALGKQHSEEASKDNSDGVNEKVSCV
# [9] = target: Muscarinic acetylcholine receptor M3 (Homo sapiens) (UniProt P20309); settings: Compound concentration 10.0 uM
# Muscarinic acetylcholine receptor M3 (Homo sapiens), sequence (P20309 whole entry, looked up): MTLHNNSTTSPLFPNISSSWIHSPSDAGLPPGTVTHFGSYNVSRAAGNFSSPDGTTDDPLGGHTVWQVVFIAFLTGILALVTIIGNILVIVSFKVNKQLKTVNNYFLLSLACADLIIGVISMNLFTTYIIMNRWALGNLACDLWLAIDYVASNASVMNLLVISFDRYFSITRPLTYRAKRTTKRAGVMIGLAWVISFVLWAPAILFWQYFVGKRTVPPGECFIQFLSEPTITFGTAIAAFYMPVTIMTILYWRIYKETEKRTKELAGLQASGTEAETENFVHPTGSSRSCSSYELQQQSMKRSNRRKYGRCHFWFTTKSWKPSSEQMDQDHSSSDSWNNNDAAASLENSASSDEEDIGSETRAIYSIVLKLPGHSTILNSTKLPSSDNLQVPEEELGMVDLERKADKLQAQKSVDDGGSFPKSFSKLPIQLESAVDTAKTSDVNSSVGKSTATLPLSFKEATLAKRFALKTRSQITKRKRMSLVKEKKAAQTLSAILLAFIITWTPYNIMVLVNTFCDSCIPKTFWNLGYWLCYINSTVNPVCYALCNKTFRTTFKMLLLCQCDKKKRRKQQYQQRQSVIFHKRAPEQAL
# [10] = target: Tyrosine-protein kinase Lyn (Homo sapiens) (UniProt P07948); experiment: v-yes-1 Yamaguchi sarcoma viral related oncogene homolog Millipore kinase panel; settings: Compound concentration 10.0 uM
# Tyrosine-protein kinase Lyn (Homo sapiens), sequence (P07948 2-512 limits assumed): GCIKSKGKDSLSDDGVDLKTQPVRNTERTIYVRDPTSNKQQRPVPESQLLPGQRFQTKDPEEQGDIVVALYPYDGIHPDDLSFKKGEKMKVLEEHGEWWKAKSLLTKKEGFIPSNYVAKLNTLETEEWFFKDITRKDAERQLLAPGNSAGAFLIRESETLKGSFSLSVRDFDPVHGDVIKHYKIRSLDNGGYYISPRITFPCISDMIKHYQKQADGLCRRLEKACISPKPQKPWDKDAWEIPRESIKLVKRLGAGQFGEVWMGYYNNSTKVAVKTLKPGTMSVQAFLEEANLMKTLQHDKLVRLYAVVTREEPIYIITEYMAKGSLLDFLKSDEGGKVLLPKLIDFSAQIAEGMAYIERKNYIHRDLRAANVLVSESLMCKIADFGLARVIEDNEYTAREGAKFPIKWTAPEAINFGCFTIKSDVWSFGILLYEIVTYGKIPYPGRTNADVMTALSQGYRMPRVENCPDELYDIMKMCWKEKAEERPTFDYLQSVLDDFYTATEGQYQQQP
# [11] = target: Ribosomal protein S6 kinase alpha-4 (Homo sapiens) (UniProt O75676); experiment: ribosomal protein S6 kinase, 90kDa, polypeptide 4 Millipore kinase panel; settings: Compound concentration 10.0 uM
# [12] = target: Ephrin type-B receptor 1 (Homo sapiens) (UniProt P54762); experiment: EPH receptor B1 Millipore kinase panel; settings: Compound concentration 10.0 uM
# [13] = target: Toll-like receptor 4 (Homo sapiens) (UniProt O00206); experiment: Toll like receptor 4 Millipore kinase panel; settings: Compound concentration 10.0 uM
# [14] = species: Rattus norvegicus; experiment: rK_ATP potassium channel Cerep panel; settings: Compound concentration 10.0 uM
# [15] = target: 5-hydroxytryptamine receptor 2B (Homo sapiens, UniProt P41595); experiment: h5HT2B Cerep panel; settings: Compound concentration 10.0 uM
# [16] = target: Eukaryotic elongation factor 2 kinase (Homo sapiens) (UniProt O00418); experiment: eukaryotic elongation factor-2 kinase Millipore kinase panel; settings: Compound concentration 10.0 uM
# [17] = target: Muscarinic acetylcholine receptor M3 (Homo sapiens) (UniProt P20309); experiment: hM3 Cerep panel; settings: Compound concentration 10.0 uM
# [18] = target: Cannabinoid receptor 2 (Homo sapiens) (UniProt P34972); experiment: hCB2 Cerep panel; settings: Compound concentration 10.0 uM
# [19] = target: Tyrosine-protein kinase Lck (Homo sapiens) (UniProt P06239); experiment: lymphocyte-specific protein tyrosine kinase (activated) Millipore kinase panel; settings: Compound concentration 10.0 uM
# Tyrosine-protein kinase Lck (Homo sapiens), sequence (P06239 2-509 limits assumed): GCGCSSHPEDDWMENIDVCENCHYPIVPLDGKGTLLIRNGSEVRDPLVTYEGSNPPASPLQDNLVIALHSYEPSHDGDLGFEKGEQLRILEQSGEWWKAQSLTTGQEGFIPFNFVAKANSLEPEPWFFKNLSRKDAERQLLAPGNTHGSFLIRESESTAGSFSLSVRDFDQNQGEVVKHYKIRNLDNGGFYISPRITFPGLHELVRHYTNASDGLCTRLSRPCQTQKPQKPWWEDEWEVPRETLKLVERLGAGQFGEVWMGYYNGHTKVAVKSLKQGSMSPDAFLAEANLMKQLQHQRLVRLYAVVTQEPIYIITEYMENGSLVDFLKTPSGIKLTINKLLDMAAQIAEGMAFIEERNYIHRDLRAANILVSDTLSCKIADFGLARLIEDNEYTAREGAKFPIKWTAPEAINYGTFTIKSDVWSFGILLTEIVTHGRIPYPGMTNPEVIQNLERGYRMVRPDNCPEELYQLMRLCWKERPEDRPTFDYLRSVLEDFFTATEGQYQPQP
# [20] = target: Homeodomain-interacting protein kinase 1 (Homo sapiens) (UniProt Q86Z02); experiment: homeodomain interacting protein kinase 1 Millipore kinase panel; settings: Compound concentration 10.0 uM
# [21] = target: Mitogen-activated protein kinase kinase kinase kinase 2 (Homo sapiens) (UniProt Q12851); experiment: mitogen-activated protein kinase kinase kinase kinase 2 Millipore kinase panel; settings: Compound concentration 10.0 uM
# [22] = target: CDK6/cyclin D3 (Homo sapiens) (UniProt P30281+Q00534); experiment: cyclin-dependent kinase 6 / cyclinD3 Millipore kinase panel; assay type: protein-complex assay; settings: Compound concentration 10.0 uM
# [23] = target: Glucocorticoid receptor (Homo sapiens) (UniProt P04150); experiment: hGR Cerep panel; settings: Compound concentration 10.0 uM
# [24] = target: Tyrosine-protein kinase Lck (Homo sapiens) (UniProt P06239); experiment: hLck Cerep panel; settings: Compound concentration 10.0 uM
# [25] = target: Serine/threonine-protein kinase Chk1 (Homo sapiens) (UniProt O14757); experiment: CHK1 checkpoint homolog (S. pombe) Millipore kinase panel; settings: Compound concentration 10.0 uM
# [26] = target: Amine oxidase [flavin-containing] A (Homo sapiens, UniProt P21397); experiment: hMAOA Cerep panel; settings: 10 µM, compound concentration 10 uM
# Amine oxidase [flavin-containing] A, sequence (P21397 whole entry): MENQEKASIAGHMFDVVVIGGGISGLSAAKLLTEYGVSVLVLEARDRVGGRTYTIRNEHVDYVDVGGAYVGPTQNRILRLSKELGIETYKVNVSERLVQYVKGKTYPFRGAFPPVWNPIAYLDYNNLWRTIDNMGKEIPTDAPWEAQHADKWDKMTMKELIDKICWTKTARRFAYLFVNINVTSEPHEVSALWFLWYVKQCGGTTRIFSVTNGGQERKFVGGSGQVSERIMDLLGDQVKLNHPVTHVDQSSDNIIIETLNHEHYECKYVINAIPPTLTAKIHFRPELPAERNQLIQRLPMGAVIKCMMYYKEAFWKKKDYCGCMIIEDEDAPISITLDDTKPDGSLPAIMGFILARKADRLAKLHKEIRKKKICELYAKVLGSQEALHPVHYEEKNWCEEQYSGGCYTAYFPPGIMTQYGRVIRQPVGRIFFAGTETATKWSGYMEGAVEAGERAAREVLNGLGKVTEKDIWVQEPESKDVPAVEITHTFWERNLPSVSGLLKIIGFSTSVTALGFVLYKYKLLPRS
# [27] = species: Rattus norvegicus; experiment: rCa channel Cerep panel; settings: Compound concentration 10.0 uM
# [28] = target: CDK3/cyclin E (Homo sapiens) (UniProt P24864+O96020+Q00526); experiment: cyclin-dependent kinase 3 / cyclinE Millipore kinase panel; assay type: protein-complex assay; settings: Compound concentration 10.0 uM
# [29] = target: C-C chemokine receptor type 1 (Homo sapiens) (UniProt P32246); experiment: hCCR1 Cerep panel; settings: Compound concentration 10.0 uM
# [30] = species: Rattus norvegicus; experiment: rGlutamate (ionotropic) kanic acid Cerep panel; settings: Compound concentration 10.0 uM
# [31] = target: Serine/threonine-protein kinase TBK1 (Homo sapiens) (UniProt Q9UHD2); experiment: TANK-binding kinase 1 Millipore kinase panel; settings: Compound concentration 10.0 uM
# [32] = target: Ephrin type-A receptor 7 (Homo sapiens) (UniProt Q15375); experiment: EPH receptor A7 Millipore kinase panel; settings: Compound concentration 10.0 uM
# [33] = target: Dual specificity mitogen-activated protein kinase kinase 6 (Homo sapiens) (UniProt P52564); experiment: mitogen-activated protein kinase kinase 6 Millipore kinase panel; settings: Compound concentration 10.0 uM
# [34] = cML1 Cerep panel; settings: Compound concentration 10.0 uM
# [35] = target: 5-hydroxytryptamine receptor 1B (Rattus norvegicus) (UniProt P28564); experiment: r5HT1B Cerep panel; settings: Compound concentration 10.0 uM
# [36] = target: MAP kinase-activated protein kinase 5 (Homo sapiens) (UniProt Q8IW41); experiment: mitogen-activated protein kinase-activated protein kinase 5 Millipore kinase panel; settings: Compound concentration 10.0 uM
# [37] = target: RAF proto-oncogene serine/threonine-protein kinase (Homo sapiens) (UniProt P04049); experiment: v-raf-1 murine leukemia viral oncogene homolog 1 Millipore kinase panel; settings: Compound concentration 10.0 uM
# [38] = target: G protein-coupled receptor kinase 5 (Homo sapiens) (UniProt P34947); experiment: G protein-coupled receptor kinase 5 Millipore kinase panel; settings: Compound concentration 10.0 uM
# [39] = target: Glutamate NMDA receptor (Rattus norvegicus) (UniProt P35439+Q00959+Q00960+Q00961+Q62645+Q8VHN2+Q9R1M7); experiment: rNMDA Cerep panel; assay type: protein-complex assay; settings: Compound concentration 10.0 uM
# [40] = target: High affinity nerve growth factor receptor (Homo sapiens) (UniProt P04629); experiment: neurotrophic tyrosine kinase, receptor, type 1 Millipore kinase panel; settings: Compound concentration 10.0 uM
# [41] = target: Serine/threonine-protein kinase Nek11 (Homo sapiens) (UniProt Q8NG66); experiment: NIMA -related kinase 11 Millipore kinase panel; settings: Compound concentration 10.0 uM
# Serine/threonine-protein kinase Nek11 (Homo sapiens), sequence (Q8NG66 whole entry): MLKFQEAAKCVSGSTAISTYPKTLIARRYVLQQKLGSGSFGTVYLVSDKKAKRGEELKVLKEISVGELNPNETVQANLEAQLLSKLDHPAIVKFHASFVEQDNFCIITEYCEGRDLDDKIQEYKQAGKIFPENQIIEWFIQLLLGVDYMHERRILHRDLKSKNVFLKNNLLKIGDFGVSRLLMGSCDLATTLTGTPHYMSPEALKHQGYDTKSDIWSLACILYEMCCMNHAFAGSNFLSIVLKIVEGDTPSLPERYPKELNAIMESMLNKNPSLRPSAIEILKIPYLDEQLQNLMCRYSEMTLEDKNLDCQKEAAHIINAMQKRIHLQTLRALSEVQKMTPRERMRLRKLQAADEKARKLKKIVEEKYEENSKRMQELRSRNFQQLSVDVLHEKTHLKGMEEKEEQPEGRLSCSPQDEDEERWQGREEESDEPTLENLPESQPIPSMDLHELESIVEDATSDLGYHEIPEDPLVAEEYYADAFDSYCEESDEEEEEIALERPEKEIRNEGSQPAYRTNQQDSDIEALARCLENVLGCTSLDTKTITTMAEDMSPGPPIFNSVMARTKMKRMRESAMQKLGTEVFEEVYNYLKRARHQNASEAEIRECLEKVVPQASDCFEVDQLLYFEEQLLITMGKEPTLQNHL
# [42] = target: SRSF protein kinase 3 (Homo sapiens) (UniProt Q9UPE1); experiment: SFRS protein kinase 3 Millipore kinase panel; settings: Compound concentration 10.0 uM
# [43] = target: Neuronal acetylcholine receptor; alpha4/beta2 (Homo sapiens) (UniProt P17787+P43681); experiment: hNneuronala4b2 Cerep panel; settings: Compound concentration 10.0 uM
# [44] = target: Discoidin domain-containing receptor 2 (Homo sapiens) (UniProt Q16832); experiment: discoidin domain receptor tyrosine kinase 2 Millipore kinase panel; settings: Compound concentration 10.0 uM
# [45] = target: Interleukin-1 receptor-associated kinase 4 (Homo sapiens) (UniProt Q9NWZ3); experiment: interleukin-1 receptor-associated kinase 4 Millipore kinase panel; settings: Compound concentration 10.0 uM
# [46] = target: Cyclin-dependent kinase 5/CDK5 activator 1 (Homo sapiens) (UniProt Q00535+Q15078); experiment: cyclin-dependent kinase 5 / p35 Millipore kinase panel; assay type: protein-complex assay; settings: Compound concentration 10.0 uM
# [47] = target: Protein-tyrosine kinase 2-beta (Homo sapiens) (UniProt Q14289); experiment: PTK2B protein tyrosine kinase 2 beta Millipore kinase panel; settings: Compound concentration 10.0 uM
# [48] = target: Homeodomain-interacting protein kinase 3 (Homo sapiens) (UniProt Q9H422); experiment: homeodomain interacting protein kinase 3 Millipore kinase panel; settings: Compound concentration 10.0 uM
# [49] = target: Protein kinase C eta type (Homo sapiens) (UniProt P24723); experiment: protein kinase C, eta Millipore kinase panel; settings: Compound concentration 10.0 uM
# [50] = target: Serine/threonine-protein kinase 17A (Homo sapiens) (UniProt Q9UEE5); experiment: serine/threonine kinase 17a Millipore kinase panel; settings: Compound concentration 10.0 uM
# [51] = target: Activated CDC42 kinase 1 (Homo sapiens) (UniProt Q07912); experiment: tyrosine kinase, non-receptor, 2 Millipore kinase panel; settings: Compound concentration 10.0 uM
# Activated CDC42 kinase 1 (Homo sapiens), sequence (Q07912 whole entry, looked up): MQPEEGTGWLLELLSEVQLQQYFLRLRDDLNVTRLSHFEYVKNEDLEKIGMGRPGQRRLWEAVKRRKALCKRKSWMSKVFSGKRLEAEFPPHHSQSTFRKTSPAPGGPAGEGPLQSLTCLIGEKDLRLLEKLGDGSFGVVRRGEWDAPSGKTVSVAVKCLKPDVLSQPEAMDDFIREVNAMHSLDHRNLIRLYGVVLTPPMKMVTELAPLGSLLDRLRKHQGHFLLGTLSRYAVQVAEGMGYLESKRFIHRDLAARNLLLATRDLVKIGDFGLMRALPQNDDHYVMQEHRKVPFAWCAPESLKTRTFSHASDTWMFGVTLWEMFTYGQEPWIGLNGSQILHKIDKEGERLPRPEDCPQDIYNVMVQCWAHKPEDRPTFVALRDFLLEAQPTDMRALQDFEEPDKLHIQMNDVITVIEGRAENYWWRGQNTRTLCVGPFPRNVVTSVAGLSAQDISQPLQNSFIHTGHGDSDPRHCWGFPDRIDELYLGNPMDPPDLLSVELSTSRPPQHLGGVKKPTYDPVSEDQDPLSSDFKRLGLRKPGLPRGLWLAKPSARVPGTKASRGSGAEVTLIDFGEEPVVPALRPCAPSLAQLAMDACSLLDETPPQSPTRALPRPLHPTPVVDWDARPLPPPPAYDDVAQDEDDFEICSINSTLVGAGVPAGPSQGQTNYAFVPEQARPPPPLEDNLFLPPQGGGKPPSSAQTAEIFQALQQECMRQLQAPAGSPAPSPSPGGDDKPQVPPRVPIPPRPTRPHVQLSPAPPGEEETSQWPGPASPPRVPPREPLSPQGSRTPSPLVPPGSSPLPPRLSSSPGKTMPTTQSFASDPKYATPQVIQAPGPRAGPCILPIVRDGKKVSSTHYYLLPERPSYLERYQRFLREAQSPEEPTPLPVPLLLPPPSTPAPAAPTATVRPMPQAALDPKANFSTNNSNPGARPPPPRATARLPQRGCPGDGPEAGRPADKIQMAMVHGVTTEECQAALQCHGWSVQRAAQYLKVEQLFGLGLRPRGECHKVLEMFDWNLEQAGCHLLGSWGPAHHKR
smiles,measurement,setting,value
COCCc1ccc(-c2c(C)nc3c(N4CCOCC4)ccnn23)cn1 [JNJ-42396302],inhibition,[1],3%
same,inhibition,[2],-2%
same,Ki,[3],41 µM
same,inhibition,[4],4%
same,inhibition,[5],1%
same,inhibition,[6],2%
same,inhibition,[7],13%
same,effect,[8],4.05%
same,inhibition,[9],6.41%
same,inhibition,[10],-1%
same,inhibition,[11],2%
same,inhibition,[12],2%
same,inhibition,[13],-5.24%
same,effect,[14],2.9%
same,effect,[15],2.4%
same,inhibition,[16],-2%
same,effect,[17],13.9%
same,effect,[18],6.1%
same,inhibition,[19],-4%
same,inhibition,[20],11%
same,inhibition,[21],-5%
same,inhibition,[22],0%
same,effect,[23],1.9%
same,effect,[24],-2.4%
same,inhibition,[25],-9%
same,effect,[26],13.8%
same,effect,[27],4.75%
same,inhibition,[28],7%
same,effect,[29],-7.45%
same,effect,[30],-25.3%
same,inhibition,[31],-3%
same,inhibition,[32],0%
same,inhibition,[33],-5%
same,effect,[34],-4.5%
same,effect,[35],-2.55%
same,inhibition,[36],7%
same,inhibition,[37],10%
same,inhibition,[38],-4%
same,effect,[39],-9.45%
same,inhibition,[40],7%
same,inhibition,[41],-2%
same,inhibition,[42],-6%
same,effect,[43],-3%
same,inhibition,[44],-5%
same,inhibition,[45],-1%
same,inhibition,[46],-5%
same,inhibition,[47],-4%
same,inhibition,[48],-6%
same,inhibition,[49],-2%
same,inhibition,[50],-9%
same,inhibition,[51],0%
